The target in assay [1] is Met (phospho-Met, HGF-stimulated PC-3 prostate cancer cells) (Homo sapiens (Human), UniProt P08581). The experiment in a line: Met autophosphorylation ELISA in PC-3 cells (Example F). Type of assay: cell-based. The conditions noted are these: cellular activity; Met autophosphorylation ELISA in PC-3 cells; read-out: c-Met IC50. In outline: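 Sandwich ELISA for phospho-Met (panTyr) in PC-3 lysates. Cells starved 3 h serum-free, compound 1 h (8-pt curve, 0.3% DMSO), HGF 100 ng/mL 10 min. 100% = HGF + DMSO; 0% = HGF + reference inhibitor. IC50 by 4-parameter fit.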
Chain of Met (phospho-Met, HGF-stimulated PC-3 prostate cancer cells) (P08581 25-1390): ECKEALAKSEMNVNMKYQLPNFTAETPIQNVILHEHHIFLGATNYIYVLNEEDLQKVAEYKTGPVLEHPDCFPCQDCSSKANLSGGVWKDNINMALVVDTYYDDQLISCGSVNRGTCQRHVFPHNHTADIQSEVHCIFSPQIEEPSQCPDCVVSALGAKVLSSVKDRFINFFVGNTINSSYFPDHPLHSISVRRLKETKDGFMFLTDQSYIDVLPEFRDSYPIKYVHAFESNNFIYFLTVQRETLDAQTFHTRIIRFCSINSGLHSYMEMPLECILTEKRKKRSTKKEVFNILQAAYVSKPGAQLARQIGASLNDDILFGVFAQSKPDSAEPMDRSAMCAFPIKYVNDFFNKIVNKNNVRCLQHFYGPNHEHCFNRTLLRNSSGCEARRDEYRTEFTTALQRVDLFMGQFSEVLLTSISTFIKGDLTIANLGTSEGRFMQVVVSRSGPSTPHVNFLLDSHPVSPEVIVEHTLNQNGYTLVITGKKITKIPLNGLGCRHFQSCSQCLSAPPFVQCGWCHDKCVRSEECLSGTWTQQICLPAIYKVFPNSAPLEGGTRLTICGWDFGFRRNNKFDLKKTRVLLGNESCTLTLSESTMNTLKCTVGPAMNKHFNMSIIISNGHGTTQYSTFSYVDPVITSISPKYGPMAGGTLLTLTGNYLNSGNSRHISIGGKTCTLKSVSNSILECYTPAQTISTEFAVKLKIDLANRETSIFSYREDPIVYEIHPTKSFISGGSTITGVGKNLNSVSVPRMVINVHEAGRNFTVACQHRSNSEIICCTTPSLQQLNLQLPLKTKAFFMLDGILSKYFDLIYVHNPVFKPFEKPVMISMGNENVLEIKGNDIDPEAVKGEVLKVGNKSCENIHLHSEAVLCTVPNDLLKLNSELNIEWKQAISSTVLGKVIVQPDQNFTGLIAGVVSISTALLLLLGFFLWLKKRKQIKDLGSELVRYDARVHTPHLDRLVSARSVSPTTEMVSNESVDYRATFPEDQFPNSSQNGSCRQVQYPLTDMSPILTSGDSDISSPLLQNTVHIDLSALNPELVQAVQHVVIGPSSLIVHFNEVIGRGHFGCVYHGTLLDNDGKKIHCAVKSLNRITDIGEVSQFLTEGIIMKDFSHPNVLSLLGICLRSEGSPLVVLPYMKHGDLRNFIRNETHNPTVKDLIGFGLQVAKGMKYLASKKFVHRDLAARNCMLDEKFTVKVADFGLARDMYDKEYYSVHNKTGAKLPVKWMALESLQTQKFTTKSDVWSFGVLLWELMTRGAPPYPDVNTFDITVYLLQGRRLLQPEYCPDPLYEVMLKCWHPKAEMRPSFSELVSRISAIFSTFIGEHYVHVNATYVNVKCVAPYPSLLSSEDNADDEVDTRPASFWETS
In general terms: ELISA stands for enzyme-linked immunosorbent assay.

Assay [2] addresses Mer (phospho-Mer, MERTK-transfected 293A cells) (Homo sapiens (Human), UniProt Q12866). In words: Mer autophosphorylation ELISA in transient transfected 293A cells (Example H). Type of assay: cell-based. The conditions noted are these: cellular activity; Mer autophosphorylation ELISA in transient transfected 293A cells. The gist of the method:
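IC50 from 4-parameter logistic fit of phospho-Mer levels, quantified by ELISA against a phospho-Mer standard in lysates of MERTK-transfected 293A cells. Cells exposed 1 h to 8-point serial dilutions, serum-free, 0.3% DMSO; controls: DMSO (100%) and reference inhibitor (0%).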

As usually defined, the IC50 is the concentration needed to halve the response being measured.

Chain of Mer (phospho-Mer, MERTK-transfected 293A cells) (Q12866 21-999): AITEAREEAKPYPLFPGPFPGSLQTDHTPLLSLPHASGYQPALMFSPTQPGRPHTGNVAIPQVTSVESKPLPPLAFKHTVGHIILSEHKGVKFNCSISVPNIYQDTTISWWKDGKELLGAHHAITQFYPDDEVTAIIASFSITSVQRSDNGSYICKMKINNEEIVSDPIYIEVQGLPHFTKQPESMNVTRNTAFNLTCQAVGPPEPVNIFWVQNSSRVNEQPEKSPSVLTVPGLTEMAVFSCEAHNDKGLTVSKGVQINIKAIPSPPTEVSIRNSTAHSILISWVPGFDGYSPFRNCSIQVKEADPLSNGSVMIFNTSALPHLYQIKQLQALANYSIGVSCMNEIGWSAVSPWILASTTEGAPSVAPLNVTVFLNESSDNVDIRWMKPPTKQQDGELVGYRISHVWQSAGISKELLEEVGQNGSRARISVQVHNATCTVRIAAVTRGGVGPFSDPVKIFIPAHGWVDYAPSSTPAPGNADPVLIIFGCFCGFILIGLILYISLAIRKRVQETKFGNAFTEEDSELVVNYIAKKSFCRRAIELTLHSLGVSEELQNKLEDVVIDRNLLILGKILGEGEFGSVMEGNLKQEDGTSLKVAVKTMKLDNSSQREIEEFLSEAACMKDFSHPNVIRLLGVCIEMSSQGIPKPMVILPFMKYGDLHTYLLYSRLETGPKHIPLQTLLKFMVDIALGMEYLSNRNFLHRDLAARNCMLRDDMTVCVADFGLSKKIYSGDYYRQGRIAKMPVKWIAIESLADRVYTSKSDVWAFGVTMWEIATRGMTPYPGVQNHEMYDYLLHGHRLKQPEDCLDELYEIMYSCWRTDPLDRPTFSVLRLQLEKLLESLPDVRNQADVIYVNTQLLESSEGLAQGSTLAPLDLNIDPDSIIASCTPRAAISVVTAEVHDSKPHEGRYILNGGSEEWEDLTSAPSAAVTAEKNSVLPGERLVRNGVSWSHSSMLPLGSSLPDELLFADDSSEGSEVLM

Turning to `COc1cc2nccc(Oc3ccc(NC(=O)c4cn(C)c(CO)c(-c5ccc(F)cc5)c4=O)cc3F)c2nc1OC` [Compound 72, N-[4-[(6,7-Dimethoxy-1,5-naphthyridin-4-yl)oxy]-3-fluorophenyl]-5-(4-fluorophenyl)-6-(hydroxymethyl)-1-methyl-4-oxopyridine-3-carboxamide], the IC50 in assay [1] and in assay [2] was less than 100 nM throughout.
As to `COc1cc2nccc(Oc3ccc(NC(=O)c4nc(C)c(C)n(-c5ccc(F)cc5)c4=O)cc3F)c2nc1OC` [Compound 95, N-[4-[(6,7-Dimethoxy-1,5-naphthyridin-4-yl)oxy]-3-fluorophenyl]-4-(4-fluorophenyl)-5,6-dimethyl-3-oxopyrazine-2-carboxamide], the IC50 in assay [1] and in assay [2] was less than 100 nM throughout.
For the compound `COc1cnc2c(Oc3ccc(NC(=O)c4cn(C)c(Cl)c(-c5ccc(F)cc5)c4=O)cc3F)ccnc2c1` [Compound 411, 6-chloro-N-[3-fluoro-4-[(7-methoxy-1,5-naphthyridin-4-yl)oxy]phenyl]-5-(4-fluorophenyl)-1-methyl-4-oxopyridine-3-carboxamide], the IC50 in assay [1] and in assay [2] was less than 100 nM each time.
For `COc1cc2nccc(Oc3ccc(NC(=O)c4cc(C#N)c(C)n(-c5ccc(F)cc5)c4=O)cc3F)c2nc1OC` [Compound 87, 5-Cyano-N-[4-[(6,7-dimethoxy-1,5-naphthyridin-4-yl)oxy]-3-fluorophenyl]-1-(4-fluorophenyl)-6-methyl-2-oxopyridine-3-carboxamide], the IC50 in assay [1] and in assay [2] was less than 100 nM each time.
Take `COc1cc2nccc(Oc3ccc(NC(=O)c4nn(C)c(C)c(-c5ccc(F)cc5)c4=O)cc3F)c2nc1OC` [Compound 92, N-[4-[(6,7-Dimethoxy-1,5-naphthyridin-4-yl)oxy]-3-fluorophenyl]-5-(4-fluorophenyl)-1,6-dimethyl-4-oxopyridazine-3-carboxamide]: the IC50 in assay [1] and in assay [2] was less than 100 nM throughout.
Take `COc1ccc2nccc(Oc3ccc(NC(=O)c4cn(C5CC5)c(C)c(-c5ccc(F)cc5)c4=O)cc3F)c2n1` [Compound 435, 1-cyclopropyl-N-[3-fluoro-4-[(6-methoxy-1,5-naphthyridin-4-yl)oxy]phenyl]-5-(4-fluorophenyl)-6-methyl-4-oxopyridine-3-carboxamide]: the IC50 in assay [1] and in assay [2] was less than 100 nM throughout.
On to `C=Cc1cc2nccc(Oc3ccc(NC(=O)c4cnc(C)c(-c5ccc(F)cc5)c4O)cc3F)c2nc1OC` [Compound 422, N-[4-[(7-ethenyl-6-methoxy-1,5-naphthyridin-4-yl)oxy]-3-fluorophenyl]-5-(4-fluorophenyl)-4-hydroxy-6-methylpyridine-3-carboxamide], for which the IC50 in assay [1] and in assay [2] was less than 100 nM each time.
Take `COc1cc2nccc(Oc3ccc(NC(=O)c4cnc(C)c(-c5ccc(F)cc5)c4O)cc3)c2nc1OC(C)C` [Compound 413, 5-(4-fluorophenyl)-4-hydroxy-N-[4-[(7-methoxy-6-propan-2-yloxy-1,5-naphthyridin-4-yl)oxy]phenyl]-6-methylpyridine-3-carboxamide]: the IC50 in assay [1] and in assay [2] was less than 100 nM throughout.
As for `COc1cc2nccc(Oc3ccc(NC(=O)c4cnc(C)c(-c5ccc(F)cc5C)c4O)cc3F)c2nc1OC` [Compound 69, N-[4-[(6,7-Dimethoxy-1,5-naphthyridin-4-yl)oxy]-3-fluorophenyl]-5-(4-fluoro-2-methylphenyl)-4-hydroxy-6-methylpyridine-3-carboxamide], the IC50 in assay [1] and in assay [2] was less than 100 nM in each case.
Regarding `COc1cc2nccc(Oc3ccc(NC(=O)c4cn(C5CC5)c(C)c(-c5ccc(F)cc5C)c4=O)cc3F)c2nc1OC` [Compound 439, 1-cyclopropyl-N-[4-[(6,7-dimethoxy-1,5-naphthyridin-4-yl)oxy]-3-fluorophenyl]-5-(4-fluoro-2-methylphenyl)-6-methyl-4-oxopyridine-3-carboxamide], the IC50 in assay [1] and in assay [2] was less than 100 nM in each case.
As to `COCCOc1nc2c(Oc3ccc(NC(=O)c4cnc(C)c(-c5ccc(F)cc5)c4O)cc3F)ccnc2cc1C` [Compound 436, N-[3-fluoro-4-[[6-(2-methoxyethoxy)-7-methyl-1,5-naphthyridin-4-yl]oxy]phenyl]-5-(4-fluorophenyl)-4-hydroxy-6-methylpyridine-3-carboxamide], the IC50 in assay [1] and in assay [2] was less than 100 nM in each case.
As for `COc1cc2nccc(Oc3ccc(NC(=O)c4ncc(C)n(-c5ccc(F)cc5)c4=O)cc3F)c2nc1OC` [Compound 93, N-[4-[(6,7-Dimethoxy-1,5-naphthyridin-4-yl)oxy]-3-fluorophenyl]-4-(4-fluorophenyl)-5-methyl-3-oxopyrazine-2-carboxamide], the IC50 in assay [1] and in assay [2] was less than 100 nM in each case.
Turning to `COc1cc2nccc(Oc3ccc(NC(=O)c4c(C)n(C)cc(-c5ccc(F)cc5)c4=O)cc3F)c2nc1OC` [Compound 81, N-[4-[(6,7-Dimethoxy-1,5-naphthyridin-4-yl)oxy]-3-fluorophenyl]-5-(4-fluorophenyl)-1,2-dimethyl-4-oxopyridine-3-carboxamide], the IC50 in assay [1] and in assay [2] was less than 100 nM each time.
As for `Cc1cc(F)ccc1-c1c(C)ncc(C(=O)Nc2ccc(Oc3ccnc4cc(C)c(F)nc34)c(F)c2)c1O` [Compound 427, N-[3-fluoro-4-[(6-fluoro-7-methyl-1,5-naphthyridin-4-yl)oxy]phenyl]-5-(4-fluoro-2-methylphenyl)-4-hydroxy-6-methylpyridine-3-carboxamide], the half-maximal inhibitory concentration (IC50) in assay [1] and in assay [2] was less than 100 nM throughout.
On to `COCCOc1nc2c(Oc3ccc(NC(=O)c4cnc(C)c(-c5ccc(F)cc5)c4O)cc3)ccnc2cc1C` [Compound 437, 5-(4-fluorophenyl)-4-hydroxy-N-[4-[[6-(2-methoxyethoxy)-7-methyl-1,5-naphthyridin-4-yl]oxy]phenyl]-6-methylpyridine-3-carboxamide], for which the 50% inhibitory concentration (IC50) in assay [1] and in assay [2] was less than 100 nM in each case.
For the compound `COCCOc1cc2nccc(Oc3ccc(NC(=O)c4c(C)nc(C)c(-c5ccc(F)cc5)c4O)cc3F)c2nc1OC` [Compound 432, N-[3-fluoro-4-[[6-methoxy-7-(2-methoxyethoxy)-1,5-naphthyridin-4-yl]oxy]phenyl]-5-(4-fluorophenyl)-4-hydroxy-2,6-dimethylpyridine-3-carboxamide], the IC50 in assay [1] and in assay [2] was less than 100 nM throughout.
Consider `COc1cc2nccc(Oc3ccc(NC(=O)c4nn(C)c(C)c(-c5ccc(F)cc5)c4=O)cc3)c2nc1OC` [Compound 91, N-[4-[(6,7-Dimethoxy-1,5-naphthyridin-4-yl)oxy]phenyl]-5-(4-fluorophenyl)-1,6-dimethyl-4-oxopyridazine-3-carboxamide], for which the IC50 in assay [1] and in assay [2] was less than 100 nM throughout.
In the case of `COc1cc2nccc(Oc3ccc(NC(=O)c4cn(C)c(C)c(-c5ccc(F)cc5)c4=O)cc3F)c2nc1OC` [Compound 58, N-[4-[(6,7-Dimethoxy-1,5-naphthyridin-4-yl)oxy]-3-fluorophenyl]-5-(4-fluorophenyl)-1,6-dimethyl-4-oxopyridine-3-carboxamide], the IC50 in assay [1] and in assay [2] was less than 100 nM in each case.
For `COc1cnc2c(Oc3ccc(NC(=O)c4ncc(C)n(-c5ccc(F)cc5)c4=O)cc3F)ccnc2c1` [Compound 94, N-[3-Fluoro-4-[(7-methoxy-1,5-naphthyridin-4-yl)oxy]phenyl]-4-(4-fluorophenyl)-5-methyl-3-oxopyrazine-2-carboxamide], the IC50 in assay [1] and in assay [2] was less than 100 nM each time.
`COc1cc2nccc(Oc3ccc(NC(=O)c4n[nH]c(C)c(-c5ccc(F)cc5)c4=O)cc3F)c2nc1OC` [Compound 88, N-[4-[(6,7-Dimethoxy-1,5-naphthyridin-4-yl)oxy]-3-fluorophenyl]-5-(4-fluorophenyl)-6-methyl-4-oxo-1H-pyridazine-3-carboxamide]: the IC50 in assay [1] and in assay [2] was less than 100 nM each time.
For `COc1cc2nccc(Oc3ccc(NC(=O)c4cn(C5CC5)c(C)c(-c5ccc(F)cc5C)c4=O)cc3)c2nc1OC` [Compound 440, 1-cyclopropyl-N-[4-[(6,7-dimethoxy-1,5-naphthyridin-4-yl)oxy]phenyl]-5-(4-fluoro-2-methylphenyl)-6-methyl-4-oxopyridine-3-carboxamide], the IC50 in assay [1] and in assay [2] was less than 100 nM each time.
On to `Cc1cc(F)ccc1-c1c(C)nnc(C(=O)Nc2ccc(Oc3ccnc4cc(C)c(F)nc34)c(F)c2)c1O` [Compound 430, N-[3-fluoro-4-[(6-fluoro-7-methyl-1,5-naphthyridin-4-yl)oxy]phenyl]-5-(4-fluoro-2-methylphenyl)-4-hydroxy-6-methylpyridazine-3-carboxamide], for which the IC50 in assay [1] and in assay [2] was less than 100 nM each time.
As to `COc1cc2nccc(Oc3ccc(NC(=O)c4cn(C)c(OC)c(-c5ccc(F)cc5)c4=O)cc3F)c2nc1OC` [Compound 78, N-[4-[(6,7-Dimethoxy-1,5-naphthyridin-4-yl)oxy]-3-fluorophenyl]-5-(4-fluorophenyl)-6-methoxy-1-methyl-4-oxopyridine-3-carboxamide], the IC50 in assay [1] and in assay [2] was less than 100 nM in each case.
In the case of `COc1ccc2nccc(Oc3ccc(NC(=O)c4c(C)nc(C)c(-c5ccc(F)cc5C)c4O)cc3F)c2n1` [Compound 70, N-[3-Fluoro-4-[(6-methoxy-1,5-naphthyridin-4-yl)oxy]phenyl]-5-(4-fluoro-2-methylphenyl)-4-hydroxy-2,6-dimethylpyridine-3-carboxamide], the IC50 in assay [1] and in assay [2] was less than 100 nM each time.

(Values after patent US12371428B2 (Exelixis, Inc., priority 2019, dated 2025).)
